Experimental data as given in paper PMC11091976, “Shorter Peptide Nucleic Acid Probes Improve Affibody-Mediated Peptide Nucleic Acid-Based Pretargeting” (ACS Pharmacology & Translational Science, 2024).
pKd: −log10 of the molar value.

How the values were obtained:
[1] = Solubility of secondary probes in labeling buffer; format: physicochemical; settings: 0.2 M NH4Ac, pH 5.5, 25 °C
Method: However, as we moved to shorter PNA oligomers, solubility saw a substantial, nonlinear increase. […] For example, at 25 °C, the maximum soluble concentration of HP17 (12-mer) was around 6 μM. […]
pH 5.5 at 25°C. Dilution series of HPLC-purified and lyophilized secondary probes (1, 3, 6, 9, 13, 26, 39, 52 and 65 µM) for […]
samples were heated at 95°C for five minutes and concentration of the soluble fraction was determined by UV absorption at 260 nm before (grey bars), and after (black bars) an 18-hour static incubation at 25°C. Duplicates were prepared of all samples and the data is presented as the mean ± SD. The maximum soluble concentration of each probe, indicated in panels A-E as a dotted line, was defined as the highest concentration at which at least 95% is still in the soluble fraction after an 18-hour incubation at 25°C. PNA-aggregates are temperature-labile, as exemplified in panel C for 82 µM HP17.
After an 18-hour incubation 25°C, 6 µM is left in the soluble fraction (left black bar) but heating the sample at 95 °C for five minutes completely redissolved HP17 aggregates into solution (right black bar).
(1 picture or pasted object on this page, not shown here)
Supplementary Material and methods
Solubility of secondary probes
HPLC-purified and freeze-dried secondary probes were resuspended in 10 mM NaAc, pH 3.5-3.6 and freeze-dried in smaller aliquots. The secondary probes were re-dissolved in 0.2 M NH4Ac, pH 5.5, and the samples were heated at 95 °C for five minutes to ensure complete dissolvement. Dilution series of secondary probes (1, 3, 6, 9, 13, 26, 39, 52 and 65 μM) for […]
NH4Ac, pH 5.5. The samples were then left for an 18-hour static incubation at 25 C, before being centrifugated at 21,100 x g for 5 minutes on a standard benchtop centrifuge (Eppendorf). The supernatants were transferred to fresh 1.5 mL Eppendorf-tubes, and the […]

ZHER2-HP15 = settings: SPR; cited from earlier work
Method: Our previously published preclinical therapy studies are based on PNA probes having 15 complementary nucleobases.[26],[27] Upon hybridization, these probes form an exceptionally stable duplex with a melting temperature (Tm) in solution of 86–88 °C. In a Biacore experiment, less than 5% of the hybridized secondary PNA detached during a 17 h long dissociation phase.[20] It is likely that shorter probe pairs than the original 15-mers provide enough binding affinity and specificity to achieve an efficient pretargeted radionuclide therapy in vivo.

HP9 = assay: UV melting of PNA:PNA duplex with primary probe HP9; format: physicochemical; settings: UV 260 nm, 20-95 °C at 1 °C/min, 5 μM each probe, 10 mM phosphate buffer, 10 mM KCl, pH 7.4
Method: (§1) The melting temperatures of secondary probes after duplex formation with primary probes were also measured by monitoring the absorbance at 260 nm as a function of temperature (see Figure S23). All probe pairs had melting temperatures well above 37 °C (body temperature) and ranged from 51 °C for the HP6:HP19 pair with 6 complementary bases to 82 °C for the previously studied HP15:HP18 pair with 15 complementary bases (see Figure 3B and Table 2). […] This secondary structure is typically adopted by antiparallel and L-amino acid-modified PNA–PNA duplexes at neutral pH.[49]
(§2) Figure S23: Normalized temperature melting profiles from 20–95°C for different primary and secondary probe pairs. UV melting curves at 260 nm. (A) HP15 (15-mer) toward secondary 15-, 12- and 9-mers. (B) HP12 (12-mer) toward secondary 12-, 9-, 8-, 7- and 6-mers. (C) HP9 (9-mer) toward secondary 9-, 8-, 7- and 6-mers. (D) HP6 (6-mer) toward secondary 6-mer.
(§3) Concentrations of duplexes in A–D are 5 μM in 10 mM […] with 10 mM KCl at pH 7.4.
(§4) (also on this page, place not known: Fraction melted Fraction meltedFraction melted Fraction melted) […]
(§5) Supplementary Material and methods […]
(§6) Biophysical characterization of PNA:PNA duplexes using CD Spectroscopy and […]
(§7) Circular dichroism (CD) and UV melts of PNA:PNA duplexes were measured on a CD spectrometer (Applied Photophysics, Leatherhead, UK) with Peltier temperature control and an external temperature probe. RP-HPLC purified and lyophilized PNA probes were dissolved in 10 mM phosphate buffer with 10 mM KCl at pH 7.4. Samples contained both primary and complementary secondary PNA probes at a final concentration of 5 µM for each probe. These samples were initially heated to 95°C for five minutes, allowed to cool to room temperature, and then transferred to a quartz cuvette with a 1.0 cm path length. A temperature probe was inserted into the solution through the cuvette's rubber cap. […]
(§8) from 20°C to 95°C with a 1°C/min temperature gradient. Simultaneously, the UV absorbance at 260 nm was recorded as a function of temperature. Fraction melted data was calculated […]
(§9) Fraction melted = 1 ― UVds― UVss , where UVss and UVds are the UV absorbances at 95°C and 20°C, respectively. The melting temperature (Tm) was determined as the maximum of the first derivative of the melting curve and was computed using the Global 3 analysis software (Applied Photophysics, […]
(§10) CD spectra in the range of 200–300 nm were recorded for all hybridized PNA:PNA pairs at 20°C before and after the UV melting experiments. All CD spectra were baseline subtracted and presented as an average of five scans.

HP12 = assay: UV melting of PNA:PNA duplex with primary probe HP12; format: physicochemical; settings: UV 260 nm, 20-95 °C at 1 °C/min, 5 μM each probe, 10 mM phosphate buffer, 10 mM KCl, pH 7.4
Method: as §1, §2, §3, §4, §5, §6, §7, §8, §9, §10

In the case of “DOTA-AEEA-SS-aacaccagg-EEY-NH2 [HP16, 9-mer secondary PNA probe with DOTA]”, the “increase in solubility compared to the 15-mer HP18” value [1] is given as ~10 fold, the maximum soluble concentration ([1]; heated 95 °C 5 min, 18-h static incubation, centrifugation, UV 260 nm of supernatant, highest concentration with at least 95% still soluble, duplicates) is given as 26 µM and the pKd (ZHER2-HP15) is given as 9.55. For the same substance, the kd (ZHER2-HP15) was 1.2 × 10^–5 s^–1, the Tm (HP9) was 65 °C and the Tm (HP12) was 68 °C.
